The values that follow come from paper PMC5520944 (Cell Death & Disease, 2017).

Like-named read-outs stand apart in the source and are kept apart here.

What all share (assay): cells
The test system of assay [1] is L929sAhFas. Also on record: high-content necroptosis screen, percentage PI-positive nuclei as percent of DMSO plus stimulus control. The text has this: To identify novel inhibitors or regulators of necroptosis, 500 small compounds from libraries targeting autophagy, kinases, phosphatases, proteases and redox balance were screened for their ability to block TNF-induced necroptosis in murine L929sAhFas cells. Three conditions were used to induce necroptosis in L929 cells: TNF alone, TNF+TAK1 inhibitor (TAK1i) and TNF+zVAD-fmk, a pan-caspase inhibitor. Inhibition of TAK1 or caspases sensitizes to necroptosis.[13], [32] Necroptosis, measured as the percentage of PI-positive nuclei normalized to the plate-specific DMSO control, was determined for each compound (Supplementary Figure 1A). […] After compound treatment, L929sAhFas (a) or L929 (b) cells were stimulated with mTNF (T), mTNF+Tak1i (TiT) or mTNF+zVAD (zVT) (Supplementary Figure 1A and B). (a) Cell death percentage (% PI-positive nuclei) or cell loss was calculated as percent of control (DMSO+stimulus). […] (b) Cell loss (luminescence-based readout for ATP) was calculated as percent of control (DMSO+stimulus). […] In stimulated conditions, % PI-positive nuclei was determined as % of DMSO control. Data represent mean values±S.E.M. of two independent experiments. Cells were stained with Hoechst and PI and percentage PI-positive nuclei was determined using high-content image analysis (BD pathway Bioimager). (d) L929sAhFas cells were treated with Sorafenib (concentration as indicated) for 24 h. Then, stimulus was removed, 50 cells/condition seeded and colonies counted with crystal violet staining after 10 days incubation. […] Schemes of workflow screening assays in L929 cell lines. (A) Scheme of the workflow of a high-content screening assay on L929sAhFas cells using mTNF (T) and mTNF+Tak1i ((5Z)-7-Oxozeaenol) (TiT) to induce necroptotic cell death. Nec-1 and zVAD-fmk were used as protective and sensitizing benchmarks, respectively, on all plates. (B) Scheme of the workflow of a CellTiter-Glo luminescent cell viability screening assay on L929 cells using mTNF+zVAD (zVT) to induce necroptotic cell death. Supplementary Figure S2. Z’ calculation for cell death screening assays in L929 cells. (A) Z’ calculation for cell death screening assay (Fig. 1A) in mTNF-stimulated L929sAhFas cells. (B) Z’ calculation for cell death screening assay (Fig. 1A) in L929sAhFas cells stimulated with mTNF + Taki.

The subject of assay [2] is L929sAhFas. Also on record: high-content necroptosis screen, percentage PI-positive nuclei as percent of DMSO plus stimulus control. The conditions noted are these: mTNF-induced cell death, validation screen; read-out: Validation screen IC50 (µM) (TNF). The text has this:
To identify novel inhibitors or regulators of necroptosis, 500 small compounds from libraries targeting autophagy, kinases, phosphatases, proteases and redox balance were screened for their ability to block TNF-induced necroptosis in murine L929sAhFas cells. Three conditions were used to induce necroptosis in L929 cells: TNF alone, TNF+TAK1 inhibitor (TAK1i) and TNF+zVAD-fmk, a pan-caspase inhibitor. Inhibition of TAK1 or caspases sensitizes to necroptosis.[13], [32] Necroptosis, measured as the percentage of PI-positive nuclei normalized to the plate-specific DMSO control, was determined for each compound (Supplementary Figure 1A). Z’ values for the TNF- and TNF+TAK1i-induced cell death assay were 0.498 and 0.919, respectively (Supplementary Figures 2A and B), indicating good assay performance. Sorafenib was identified as an effective inhibitor of both TNF- and TNF+TAK1i-induced necroptosis (Figure 1a). […] In an independent screening with 437 FDA-approved drugs and TNF+zVAD-fmk as necroptosis trigger in L929 cells (Supplementary Figure 1B), Sorafenib was also shown to be a potent inhibitor (Figure 1b). […] After compound treatment, L929sAhFas (a) or L929 (b) cells were stimulated with mTNF (T), mTNF+Tak1i (TiT) or mTNF+zVAD (zVT) (Supplementary Figure 1A and B). (a) Cell death percentage (% PI-positive nuclei) or cell loss was calculated as percent of control (DMSO+stimulus). Green points marked by the green dotted line represent a selection of kinase inhibitors from the screening on L929sAhFas cells (Supplementary Table 1), that are only slightly protective in the TNF-stimulated condition. (b) Cell loss (luminescence-based readout for ATP) was calculated as percent of control (DMSO+stimulus). […] In stimulated conditions, % PI-positive nuclei was determined as % of DMSO control. Data represent mean values±S.E.M. of two independent experiments. Cells were stained with Hoechst and PI and percentage PI-positive nuclei was determined using high-content image analysis (BD pathway Bioimager). (d) L929sAhFas cells were treated with Sorafenib (concentration as indicated) for 24 h. Then, stimulus was removed, 50 cells/condition seeded and colonies counted with crystal violet staining after 10 days incubation. Quantification was performed using ImageJ. n=2, a representative experiment is shown Legends supplementary figures Supplementary Figure S1. Schemes of workflow screening assays in L929 cell lines. (A) Scheme of the workflow of a high-content screening assay on L929sAhFas cells using mTNF (T) and mTNF+Tak1i ((5Z)-7-Oxozeaenol) (TiT) to induce necroptotic cell death. Nec-1 and zVAD-fmk were used as protective and sensitizing benchmarks, respectively, on all plates. (B) Scheme of the workflow of a CellTiter-Glo luminescent cell viability screening assay on L929 cells using mTNF+zVAD (zVT) to induce necroptotic cell death. Supplementary Figure S2. Z’ calculation for cell death screening assays in L929 cells. (A) Z’ calculation for cell death screening assay (Fig. 1A) in mTNF-stimulated L929sAhFas cells. (B) Z’ calculation for cell death screening assay (Fig. 1A) in L929sAhFas cells stimulated with mTNF + Taki.

For the next assay, the system named is MEF. Also on record: species or system L929sAhFas or MEF; protection from TNF-induced cell death, percentage PI-positive nuclei by high-content imaging. To be noted: Mus musculus. As for the experimental part:
(c,d) HT-29 and Jurkat FADD−/− cells were pretreated for 1 h with DMSO, Nec-1 or Sorafenib (concentrations as indicated) and stimulated for 6 h with 30 ng/ml hTNF, 1 μM BV6 and 30 μM zVAD (HT-29) or stimulated for 10 h with 100 ng/ml hTNF (Jurkat FADD−/−). (a-d) Data were normalized to DMSO-treated control cells and represent the mean value±S.E.M. of three independent experiments. Toxic concentrations were removed from the analysis. L929sAhFas and MEF cells were stained with Hoechst and PI and percentage PI-positive nuclei was determined using high-content image analysis (BD pathway Bioimager). For HT-29 and Jurkat FADD−/− cells, cell death was determined by PI staining and flow cytometry. […] Cell death in AML cells was determined by PI staining and flow cytometry. […] Smac mimetic BV6[34] instead of TAK1i was used as a sensitizer for testing of mouse embryonic fibroblasts (MEF) and human cell lines. […] Since Sorafenib is used to treat AML,[27] we also included two AML cell lines to investigate whether it alters the sensitivity of these cells to necroptotic stimuli (BV6 in the presence of zVAD-fmk).[34]

Assay [3] concerns L929sAhFas. Details: species or system L929sAhFas or MEF; protection from TNF-induced cell death, percentage PI-positive nuclei by high-content imaging. To be noted: mTNF; inhibition of induced cell death. Here is the method:
Figure 2 Sorafenib inhibits TNF-induced RIPK1-dependent cell death in both murine and human cell lines and rescues AML cells from Smac mimetic-induced necroptosis. […] (c,d) HT-29 and Jurkat FADD−/− cells were pretreated for 1 h with DMSO, Nec-1 or Sorafenib (concentrations as indicated) and stimulated for 6 h with 30 ng/ml hTNF, 1 μM BV6 and 30 μM zVAD (HT-29) or stimulated for 10 h with 100 ng/ml hTNF (Jurkat FADD−/−). (a-d) Data were normalized to DMSO-treated control cells and represent the mean value±S.E.M. of three independent experiments. Toxic concentrations were removed from the analysis. L929sAhFas and MEF cells were stained with Hoechst and PI and percentage PI-positive nuclei was determined using high-content image analysis (BD pathway Bioimager). For HT-29 and Jurkat FADD−/− cells, cell death was determined by PI staining and flow cytometry. […] Cell death in AML cells was determined by PI staining and flow cytometry. Mean and S.D. of three independent experiments performed in triplicate are shown To confirm the inhibition of TNF-induced necroptosis by Sorafenib, we tested a panel of murine (L929sAhFas and MEF) and human cell lines (HT-29, Jurkat FADD^-/-, and two AML cell lines MV4-11 and Molm13). Smac mimetic BV6[34] instead of TAK1i was used as a sensitizer for testing of mouse embryonic fibroblasts (MEF) and human cell lines. […]

Another assay relates to Molm13. Details: species or system Jurkat FADD-/-, HT-29, MV4-11 or Molm13; protection from induced necroptosis, cell death by PI staining and flow cytometry. The conditions noted are these: Homo sapiens, MOLM-13; BV6 + zVAD; inhibition of induced cell death. Here is the method:
(§1) Figure 2 Sorafenib inhibits TNF-induced RIPK1-dependent cell death in both murine and human cell lines and rescues AML cells from Smac mimetic-induced necroptosis. […] (c,d) HT-29 and Jurkat FADD−/− cells were pretreated for 1 h with DMSO, Nec-1 or Sorafenib (concentrations as indicated) and stimulated for 6 h with 30 ng/ml hTNF, 1 μM BV6 and 30 μM zVAD (HT-29) or stimulated for 10 h with 100 ng/ml hTNF (Jurkat FADD−/−). (a-d) Data were normalized to DMSO-treated control cells and represent the mean value±S.E.M. of three independent experiments. Toxic concentrations were removed from the analysis. L929sAhFas and MEF cells were stained with Hoechst and PI and percentage PI-positive nuclei was determined using high-content image analysis (BD pathway Bioimager). For HT-29 and Jurkat FADD−/− cells, cell death was determined by PI staining and flow cytometry. […] Cell death in AML cells was determined by PI staining and flow cytometry. Mean and S.D. of three independent experiments performed in triplicate are shown Supplementary materials and methods Immunoblotting. After treatments, cells were washed twice with PBS and lysed with Laemmli buffer (2x) directly or with NP-40 lysis buffer (150 mM NaCl, 1% NP-40, 10% glycerol, 10 mM Tris-HCl pH 8) supplemented with EDTA-free protease inhibitor cocktail tablets (Roche Diagnostics, Basel, Switzerland, #11873580001) and phosphatase inhibitor cocktail tablets (Roche Diagnostics, #04906837001). After lysis with NP-40 lysis buffer, lysates were kept 10 minutes on ice and centrifugated in a microcentrifuge (10 min, 13.000 rpm, 4°C). Supernatant was used for SDS-PAGE and immunoblotting. FACS analysis. FACS analysis was used to measure dying HT-29, Jurkat FADD-/- and AML cells. Treated HT-29 cells were harvested, washed with PBS and incubated with Annexin V binding buffer (BD Biosciences, 556454) containing 7-AAD and Annexin V-FITC for 15 min according to the manufacturer’s protocol. FACSCalibur^TM Flow Cytometer (BD Biosciences) and CellQuest Pro software were used to perform experiments and analyze data respectively.

The test system of a further assay is MV4-11. Details: species or system Jurkat FADD-/-, HT-29, MV4-11 or Molm13; protection from induced necroptosis, cell death by PI staining and flow cytometry. To be noted: Homo sapiens, BV6 + zVAD, inhibition of induced cell death. Here is the method: as §1
Where [4] appears, read: read-out: cell death TNF/Taki (POC).

`N#C/C(=C\c1ccc(O)c(O)c1)C(=O)NCc1ccccc1` [AG-490]: the activity at 10 µM in the assay on L929sAhFas [1] (read-out: cell death TNF (POC)) is 74.2%; in the assay on L929sAhFas [1] (setting [4]), 97.3%. Moreover, in the assay with L929sAhFas [2], the IC50 – broadly, the concentration that gives 50% inhibition – was determined as 87.3 µM.

Regarding `N#C/C(=C\c1ccc(O)c(O)c1)C(=O)Nc1ccccc1` [AG-494], the activity at 10 µM was 58.6% with L929sAhFas [1] (read-out: cell death TNF (POC)) and 95.8% in the assay on L929sAhFas [1] (setting [4]). Moreover, in the assay on L929sAhFas [2], the IC50 stood at 32.3 µM.

In the case of `COc1cc2ncc(-c3ccccc3)nc2cc1OC` [AG-1296], the activity at 10 µM is 77.6% in the assay on L929sAhFas [1] (read-out: cell death TNF (POC)) and 93.6% with L929sAhFas [1] (setting [4]). Besides, the IC50 with L929sAhFas [2] turned out to be 33.2 µM.

Regarding `CN1C(=O)NC(Cc2c[nH]c3c(Cl)cccc23)C1=O` (centres unmarked) [Nec-1s], the IC50 in the assay on MEF (mTNF + BV6 + zVAD, inhibition of induced cell death) was 630 ± 250 nM; with MEF (mTNF + BV6, inhibition of induced cell death), 380 ± 50 nM; with L929sAhFas [3] it was 240 ± 120 nM; with Molm13 it was 280 ± 170 nM; in the assay on MV4-11, 150 ± 10 nM.

Take `CN(C)c1ccc(/C=C2\C(=O)Nc3ccccc32)cc1` [SU 4312]: the activity at 10 µM came to 69.6% in the assay with L929sAhFas [1] (read-out: cell death TNF (POC)) and 96.8% with L929sAhFas [1] (setting [4]). Further, the IC50 in the assay on L929sAhFas [2] worked out at 26.4 µM.

As for `CC(C)(C)c1cc(C=C(C#N)C#N)cc(C(C)(C)C)c1O` [TYRPHOSTIN 9], the activity at 10 µM in the assay with L929sAhFas [1] (read-out: cell death TNF (POC)) worked out at 41.8%; in the assay with L929sAhFas [1] (setting [4]), 95.8%. For the same compound, the IC50 with L929sAhFas [2] is 4.45 µM.
